Data set [1] has as its target T1, hERG channel (Homo sapiens, UniProt Q12809).
T1 construct: expressed in transfected cells; host or cells: CHO (Chinese hamster ovary), CHOhERG
Kind of data set: hERG channel inhibition assay (patch-clamp, CHOhERG cells). The format is cell-based. Conditions: for IC50 / IC20: CHOhERG cells, whole-cell patch-clamp; for IC20: human, CHO cells stably expressing hERG (CHOhERG); for hERG IC20 / TLR8 IC50 / hERG IC20 / TLR9 IC50 / hERG IC20 /TLR7 IC50: safety ratio. The protocol:
The hERG K^+ channels were cloned in humans and stably expressed in a CHO (Chinese hamster ovary) cell line. CHOhERG cells were used for patch-clamp (voltage-clamp, whole-cell) experiments. Cells were stimulated by a voltage pattern to activate hERG channels and conduct IKhERG currents (rapid delayed outward rectifier potassium current of the hERG channel). After the cells were stabilized for a few minutes, the amplitude and kinetics of IKhERG were recorded at a stimulation frequency of 0.1 Hz (6 bpm). Thereafter, the test compound was added to the preparation at increasing concentrations. For each concentration, an attempt was made to reach a steady-state effect, usually, this was achieved within 3-10 min at which time the next highest concentration was applied. The amplitude and kinetics of IKhERG are recorded in each concentration of the drug which were compared to the control values (taken as 100%). (references: Redfern WS, Carlsson L, Davis AS, Lynch WG, MacKenzie I, Palethorpe S, Siegl PK, Strang I, Sullivan AT, Wallis R, Camm AJ, Hammond TG. 2003; Relationships between preclinical cardiac electrophysiology, clinical QT interval prolongation and torsade de pointes for a broad range of drugs: evidence for a provisional safety margin in drug development. Cardiovasc. Res. 58:32-45, Sanguinetti MC, Tristani-Firouzi M. 2006; hERG potassium channels and cardiac arrhythmia. Nature 440:463-469, Webster R, Leishman D, Walker D. 2002; Towards a drug concentration effect relationship for QT prolongation and torsades de pointes. Curr. Opin. Drug Discov. Devel. 5:116-26).
(In general: Block of hERG is tested as a sign of cardiac risk.)

Data set [2] in a line: Single dose pharmacokinetics (PK) study in male Wister-Han rats. The data set is classed as in vivo. How it is done:
Pharmacokinetic properties of selected compounds were assessed by single dose PK studies in Male Wister-Han Rats (vendor: Beijing Vital River Laboratory Animal Technology Co., Ltd). Briefly, two groups of animals were administered a single dose of respective compound intravenously (IV, bolus) at 2 mg/kg or orally (PO, by gavage) at 10 mg/kg. Blood samples (approximately 150 µL) were collected via Jugular vein at 5 min (only for IV), 15 min, 30 min, 1 h, 2 h, 4 h, 7 h and 24 h post-dose. Blood samples were placed into tubes containing EDTA-K2 anticoagulant and centrifuged at 3000 rpm for 15 min at 4° C. to separate plasma from the samples. After centrifugation, the resulting plasma was transferred to clean tubes for bioanalysis with LC/MS/MS. The pharmacokinetic parameters were calculated using non-compartmental analysis. The volume of distribution (Vss), half-life (T½) and clearance (CL) were obtained based on the plasma concentration-time curve after IV dose. The peak concentration (Cmax) was recorded directly from experimental observations after PO dose. The area under the plasma concentration-time curve (AUC0-last) was calculated using the linear trapezoidal rule up to the last detectable concentration. The bioavailability (F) was calculated based on the dose normalized AUC0-last after IV and PO dose.
The Vss of a drug represents the degree to which a drug is distributed in body tissue rather than the plasma. Vss is directly proportional with the amount of drug distributed into tissue. A higher Vss indicates a greater amount of tissue distribution.

Structures are written as SMILES. Read-outs that look alike come from different tables or passages of the source. Some results are limits rather than exact numbers.

As a reminder, the IC50 is the concentration that inhibits the measured activity by half. A lower IC50 goes with inhibition by little substance. One may read the IC20 as the point of the concentration-response curve where the effect stands at 20%. Low readings indicate greater potency, high ones weaker potency. By Cmax is commonly meant the maximum level reached in the sampled fluid or tissue. What is called clearance is a measure of how efficiently the substance is removed, as volume per time. Lower therefore signals a low capacity for elimination.

T1 sequence (Q12809 whole entry): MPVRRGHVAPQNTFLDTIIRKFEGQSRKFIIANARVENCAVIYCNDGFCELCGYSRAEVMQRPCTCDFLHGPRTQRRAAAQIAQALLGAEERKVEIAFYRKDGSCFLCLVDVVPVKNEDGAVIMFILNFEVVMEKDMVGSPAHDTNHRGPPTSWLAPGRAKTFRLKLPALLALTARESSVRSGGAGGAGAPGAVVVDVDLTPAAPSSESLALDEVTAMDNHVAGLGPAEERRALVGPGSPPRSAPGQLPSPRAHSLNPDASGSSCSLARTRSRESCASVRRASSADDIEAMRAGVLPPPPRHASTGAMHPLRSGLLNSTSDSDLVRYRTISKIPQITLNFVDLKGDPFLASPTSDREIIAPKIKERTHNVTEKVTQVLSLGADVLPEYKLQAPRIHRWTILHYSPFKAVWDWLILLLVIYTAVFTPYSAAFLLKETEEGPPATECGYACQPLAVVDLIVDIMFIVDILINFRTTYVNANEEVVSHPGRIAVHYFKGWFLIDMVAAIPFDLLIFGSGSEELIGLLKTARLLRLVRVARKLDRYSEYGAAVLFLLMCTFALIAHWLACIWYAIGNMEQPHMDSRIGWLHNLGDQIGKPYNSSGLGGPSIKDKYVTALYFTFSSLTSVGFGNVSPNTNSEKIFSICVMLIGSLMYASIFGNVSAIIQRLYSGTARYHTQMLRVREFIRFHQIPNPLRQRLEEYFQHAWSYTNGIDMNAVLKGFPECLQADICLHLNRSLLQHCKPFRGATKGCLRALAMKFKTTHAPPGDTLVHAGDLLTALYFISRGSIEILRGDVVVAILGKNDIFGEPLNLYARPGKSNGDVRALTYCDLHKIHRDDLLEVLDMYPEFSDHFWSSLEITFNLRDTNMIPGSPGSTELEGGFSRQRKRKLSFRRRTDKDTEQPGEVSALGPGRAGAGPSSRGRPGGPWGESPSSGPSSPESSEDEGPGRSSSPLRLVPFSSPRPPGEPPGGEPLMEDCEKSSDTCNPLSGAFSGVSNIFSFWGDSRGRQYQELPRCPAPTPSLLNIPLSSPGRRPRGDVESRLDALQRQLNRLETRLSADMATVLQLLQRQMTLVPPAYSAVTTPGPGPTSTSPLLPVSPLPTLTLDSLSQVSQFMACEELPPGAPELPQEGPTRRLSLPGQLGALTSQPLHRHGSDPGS

Consider `CCc1nc(N2CCN(Cc3ccc(N4CC5(CNCCO5)C4)nc3)CC2)ccc1-c1cc(C)c(=O)n(C)c1` [Example 2, 5-[2-ethyl-6-[4-[[6-(5-oxa-2,8-diazaspiro[3.5]nonan-2-yl)-3 pyridyl]methyl]piperazin-1-yl]-3-pyridyl]-1,3-dimethyl-pyridin-2-one], for which, in data set [1], the IC50 was > 20 µM, the IC20 is > 10 µM, the “hERG IC20 / TLR8 IC50” value is on record as >33000 and the “hERG IC20 / TLR9 IC50” value is reported as >47.1. Also, the “hERG IC20 /TLR7 IC50” value in data set [1] was >961.8.
In the same order, the values of `CCc1nc(N2CCN(Cc3cnc(N4CC(C)(N)C4)nc3)CC2)ccc1-c1cc(C)c(=O)n(C)c1` [Example 3, 5-[6-[4-[[2-(3-amino-3-methyl-azetidin-1-yl)pyrimidin-5-yl]methyl]piperazin-1-yl]-2-ethyl-3-pyridyl]-1,3-dimethyl-pyridin-2-one] are > 20 µM, > 10 µM, >33000, >31.4 and >724.6.
As for `Cc1cc(-c2ccc(N3CCN(Cc4ccc(N5CCNCC5)cn4)CC3)nc2C(C)C)cn(C)c1=O` [Example 7, 5-[2-isopropyl-6-[4-[(5-piperazin-1-yl-2-pyridyl)methyl]piperazin-1-yl]-3-pyridyl]-1,3-dimethyl-pyridin-2-one], in data set [1], the IC50 was > 20 µM, the 20% effect concentration (IC20) came out at 4.7 µM, the “hERG IC20 / TLR8 IC50” value is given as 16000 and the “hERG IC20 / TLR9 IC50” value stood at 24.4. Also, the “hERG IC20 /TLR7 IC50” value in data set [1] came out at 940.
For `CCc1nc(N2CCN(Cc3cnc(N4CC5(CNCCO5)C4)nc3)CC2)ccc1-c1cc(C)c(=O)n(C)c1` [Example 1, 5-[2-ethyl-6-[4-[[2-(5-oxa-2,8-diazaspiro[3.5]nonan-2-yl)pyrimidin-5-yl]methyl]piperazin-1-yl]-3-pyridyl]-1,3-dimethyl-pyridin-2-one], the F in data set [2] (dose normalized AUC0-last after IV 2 mg/kg and PO 10 mg/kg) was 40%. In data set [2] (rat, IV 2 mg/kg, plasma, read-out: IV AUC0-last), the AUC(0-t) is 873 ng·h/mL. The molecule further yielded a Cmax in data set [2] (rat, PO 10 mg/kg, plasma) of 151 ng/mL. In addition, in data set [2] (rat, PO 10 mg/kg, plasma, read-out: PO AUC0-last), the AUC(0-t) came to 1750 ng·h/mL. Moreover, in data set [2] (rat, plasma, IV 2 mg/kg), the clearance worked out at 37 mL/min/kg. Further, the half-life in data set [2] (rat, plasma, IV 2 mg/kg, read-out: T½ (converted)) is 3.78 h. In addition, the Vd in data set [2] (rat, plasma, IV 2 mg/kg, read-out: Vss) was determined as 7.4 L/kg. In data set [1], the IC50 is > 20 µM, the IC20 is > 10 µM, the “hERG IC20 / TLR8 IC50” value is listed as >14285.2 and the “hERG IC20 / TLR9 IC50” value is given as >14.2. Also, in data set [1], the “hERG IC20 /TLR7 IC50” value is recorded as >1052.6.

(Values after US20230295109A1, “PYRIDINONE COMPOUNDS FOR THE TREATMENT OF AUTOIMMUNE DISEASE” (F. Hoffmann-La Roche AG, priority 2020, published 2023).)
